Values of other authors in US20160287529A1, “METHOD FOR TREATING AND PREVENTING RECURRENT INTERDIGITAL TINEA PEDIS (ATHLETE'S FOOT) DISEASE” (priority 2015, published 2016).

Test system: fungal infections of the skin and nails of the human foot
Details: topical treatment

| Compound | effectiveness compared with the allylamines |
| --- | --- |
| Cc1cccc(N(C)C(=S)Oc2ccc3ccccc3c2)c1 [tolnaftate] | less effective |
| C=CCCCCCCCCC(=O)O [undecenoic acid] | less effective |
